The test concerns the target Aminopeptidase N (Homo sapiens, UniProt P15144). The test can be described thus: Inhibition of human recombinant APN expressed in HEK293 cells. The format is cell-based.

Molecules are shown by their SMILES.

Sequence of Aminopeptidase N (P15144 whole entry): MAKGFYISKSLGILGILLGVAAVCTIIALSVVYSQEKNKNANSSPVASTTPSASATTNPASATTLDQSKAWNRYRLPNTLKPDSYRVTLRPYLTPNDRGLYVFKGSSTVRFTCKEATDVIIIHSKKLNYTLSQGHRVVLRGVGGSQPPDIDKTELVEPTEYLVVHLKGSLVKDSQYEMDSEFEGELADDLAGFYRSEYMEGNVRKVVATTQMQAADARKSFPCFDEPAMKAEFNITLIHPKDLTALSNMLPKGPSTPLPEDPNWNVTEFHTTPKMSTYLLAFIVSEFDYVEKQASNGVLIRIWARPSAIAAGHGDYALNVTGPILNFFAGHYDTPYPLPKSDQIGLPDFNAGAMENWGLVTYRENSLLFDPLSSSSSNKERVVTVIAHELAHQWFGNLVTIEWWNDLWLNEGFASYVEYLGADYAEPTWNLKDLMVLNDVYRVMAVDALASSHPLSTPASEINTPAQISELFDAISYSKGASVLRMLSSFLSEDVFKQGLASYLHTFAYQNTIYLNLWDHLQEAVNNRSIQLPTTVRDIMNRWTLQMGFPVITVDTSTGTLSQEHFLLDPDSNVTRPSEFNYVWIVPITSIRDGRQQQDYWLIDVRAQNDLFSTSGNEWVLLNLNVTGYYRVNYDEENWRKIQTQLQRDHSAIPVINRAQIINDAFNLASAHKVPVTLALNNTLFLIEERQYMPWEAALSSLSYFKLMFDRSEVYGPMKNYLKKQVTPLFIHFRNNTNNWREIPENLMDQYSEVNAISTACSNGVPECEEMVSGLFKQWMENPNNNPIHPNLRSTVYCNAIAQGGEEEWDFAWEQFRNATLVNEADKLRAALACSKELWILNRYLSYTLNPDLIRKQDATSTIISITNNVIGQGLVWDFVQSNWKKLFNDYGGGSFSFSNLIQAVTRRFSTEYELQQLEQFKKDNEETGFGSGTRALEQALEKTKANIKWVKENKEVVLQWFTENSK

In general, Ki refers to the equilibrium dissociation constant of an inhibitor or competing ligand from its target. Consider `Nc1cc(Cc2ccc(O)cc2)cc(C(=O)NCc2ccccc2CC(=O)O)c1`, for which the Ki was greater than 100 µM.
Take `CC[C@@H](C)[C@H](NC(=O)c1cc(N)cc(Cc2ccc(O)cc2)c1)C(=O)NCc1ccccc1CC(=O)O`: the Ki was greater than 100 µM.

Values taken from ChEMBL document CHEMBL1155005, “Ligands to the (IRAP)/AT4 receptor encompassing a 4-hydroxydiphenylmethane scaffold replacing Tyr2” (Bioorg Med Chem, 2008).
